Assay results published in patent US20050234113A1, “Antioxidant and radical scavenging activity of synthetic analogs of desferrithiocin” (University of Florida Research Foundation, Inc., priority 2002, published 2005).
“Also recorded” adds a separate entry of the source. Marks after values point to notes of the source that are not given here.

Experiments:
[1] = Quenching of the ABTS radical cation; conditions: Table 5; 6-min reaction, initial OD 1.000
[2] = Quenching of the ABTS radical cation
Method: The iron chelators were tested for their ability to quench the radical cation formed from 2,2′-azinobis(3-ethylbenzothiazoline-6-sulfonic acid) (ABTS) by the method of Re et al. in Free Radic. Biol. Med. 26, 1231-1237 (1999). Briefly, a stock solution of ABTS radical cation was generated by mixing ABTS (10 mM, 2.10 mL) with K2S2O8 (8.17 mM, 0.90 mL) in H2O and […] deep blue-green ABTS radical cation was diluted in sufficient sodium phosphate (10 mM, pH 7.4) to give an A734 of about 0.900. Test compounds were added to a final concentration ranging from 1.25 to 15 μM, and the decrease in A734 was read after 1, 2, 4 and 6 min. The reaction was largely complete by 1 min, but the data presented are based on a 6-min reaction time.
In this assay, a fairly stable radical cation, ABTS^+, was examined, and Trolox, an analog of vitamin E, was used as a positive control. Briefly, the procedure involved generating the blue-green chromophore by the reaction of ABTS with K2S2O8. The radical has absorption maxima at λ=415, 645, 734, and 815 nm. The change in absorbance at 734 nm was noted 6 min after addition of the chelator of interest at various concentrations, and the slope of the ΔA734 vs. ligand concentration line was calculated.
The iron chelators were tested for their ability to quench the radical cation formed from 2,2′-azinobis(3-ethylbenzothiazoline-6-sulfonic acid) (ABTS) by a published method (Re, R., et al., Free Radical Biol. Med. 26:1231-1237 (1999). Briefly, a stock solution of ABTS radical cation was generated by mixing ABTS (10 mM, 2.10 mL) with K2S2O8 (8.17 mM, 0.90 mL) in H2O and allowing the solution to sit in the dark at room temperature for 18 hours. This stock solution of deep blue-green ABTS radical cation was diluted in sufficient sodium phosphate (10 mM, pH 7.4) to give an A734 of about 0.900. Test compounds were added to a final concentration ranging from 1.25 to 15 μM, and the decrease in A734 was read after 1, 2, 4 and 6 min. The reaction was largely complete by 1 min, but the data presented are based on a 6-min. reaction time.
This radical cation decolorization assay utilizes the pre-formed radical monocation of 2,2′-azinobis(3-ethylbenzothiazoline-6-sulfonic acid) (ABTS) and has been used to evaluate the antioxidant capacity of a large number of compounds and mixtures. Briefly, the change in absorbance of the blue-green chromophore was recorded after the addition of the chelator of interest at each of the different concentrations, and the slope of the ΔA734 vs. ligand concentration line was calculated. The positive control for this reaction was Trolox, an analogue of vitamin E. The decrease in A734 as a function of ligand concentration is the comparitor among the five compounds evaluated. Trolox, L1, DFO, (S)-4′-(HO)-DADMDFT and BDU (Table 3). All four of the iron chelators performed better than Trolox; DFO≈BDU>(S)-4′-(HO)-DADMDFT>L1>Trolox. Thus, all of these ligands could be expected to serve as excellent radical scavengers.

[3] = tested on: acetic acid-induced colitis; assay: Acetic acid-induced colitis in rats, densitometric image analysis of colonic damage; assay type: in vivo
Method: (§1) The ligands were administered to the rats intracolonically as a suspension or solution in distilled water (2 mL) at a dose of 650 μmol kg^−1. The drug solutions were made fresh for each experiment. ROWASA®, the pharmaceutical preparation which contains 5-ASA (2 mL, 66.7 mg mL^−1) was given at a dose of 2318 μmol kg^−1. Control rats received distilled water (2 mL), administered intracolonically.
(§2) Animal care and experimental procedures were approved by the Institutional Animal Care and Use Committee. Colitis was induced by a modification of published methods. Briefly, the rats were anesthetized with sodium pentobarbital, 55 mg kg^−1 intraperitoneally. The abdomen was shaved and prepared for surgery. A midline incision was made, and the cecum and proximal colon were exteriorized. A reversible suture was placed at the junction of the cecum and proximal colon. The colon was rinsed with saline (10 mL), and the fluid and intestinal contents were gently expressed out the rectum. A gum-based rectal plug was inserted. The compound of interest, or distilled water in the control animals (2 mL), was injected intracolonically just distal to the ligature. The cecum and proximal colon were returned to the abdominal cavity; the compound was allowed to remain in the gut for 30 min. Then, the cecum and proximal colon were reexteriorized. The rectal plug was removed, and the drug was gently expressed out of the colon. Acetic acid (4%, 2 mL) was injected into the proximal colon over a 15-20-second time period. The acid was allowed to remain in the gut until one minute had passed (i.e., 40-45 seconds after the end of the acid administration). The no acid control rats received distilled water (2 mL), which was administered in the same manner as was the acetic acid. Air (10 mL) was then injected into the proximal colon to expel the acid or water. The cecal/proximal colon ligature was removed, the gut was returned to the abdominal cavity, and the incisions were closed. The animals were allowed to recover overnight and were sacrificed 24 hr later. The entire length of the colon was removed and assessed for damage both densitometrically and biochemically.
Gross damage was quantitated using Photoshop-based image analysis (version 5.0, Adobe Systems, Mountain View, Calif., USA) on an Apple iMac computer. The Magic Wand tool in the Select menu of Photoshop was used to place the cursor on an area of obvious damage. The tolerance level of the Magic Wand tool was set at 30. The damaged areas were automatically selected by using the Similar command in the Select menu. Then, the Eyedropper tool was used to determine the range of the damage in the highlighted areas. Individual colon images were copied to a blank Photoshop page. The Magic Wand tool, with a tolerance set to 100, was used to select all of the pixels in the colon sample. Then, the Histogram tool, which generates a graph in which each vertical line represents the number of pixels associated with a brightness level, was selected in the Image menu. The Red channel was then selected; the darker (damaged areas) appear on the left side of the histogram and the lighter (normal) areas are on the right side. The cursor was then placed on the histogram, the color range determined in an earlier step was selected, and the number of pixels encompassing that range and the percent damage were quantified automatically.
Two means were employed to assess the damage to the colon in the presence and absence of ligand, computer-based image analysis and colonic MPO measurement. The densitometric method removes much of the subjectivity involved in the simple scoring approaches. A digital image of the prepared colonic tissue is taken, and a clearly damaged segment is highlighted on the screen. Once the computer identifies all other segments of the intestine with the same or greater damage, a pixel number is generated; this number makes it possible to calculate the percentage of damaged intestine.

[4] = tested on: Myeloperoxidase (MPO) activity in colonic tissue; assay: Myeloperoxidase (MPO) assay in colonic tissue of rats with acetic acid-induced colitis; assay type: in vivo; conditions: 650 μmol kg^−1 intracolonically 30 min before 4% acetic acid, mean ± standard deviation
Method: as §1, §2
The activity of MPO was measured in colonic tissue by a modification of the method of Krawisz et al. in Gastroenterology 87, 1344-1350 (1984). Each excised colon was homogenized in 9 volumes of homogenization buffer (0.5% hexadecyltrimethylammonium bromide (HDTMA) in 50 mM sodium acetate, pH 6.0); this homogenate was centrifuged at 1200 g for 20 min at 4° C. A sample of the supernatant (1.8 mL) was transferred into a microcentrifuge tube and stored frozen at −20° C. for up to one week. Prior to assay, the thawed aliquot was centrifuged at about 10,000 g for 15 minutes at 4° C. The final supernatant (33 μL) was added to a solution of o-dianisidine HCl (0.17 mg mL^−1 in 50 mM sodium acetate, pH 6.0, made fresh daily and filtered immediately before use) (950 μL), the mixture was vortexed, and the peroxidase reaction was initiated by the addition of H2O2 to 50 mM sodium acetate, pH 6.0, made fresh daily (16.7 μL). The A470 at room temperature (ca. 23° C.) was read at 15-second intervals for 2 min. The rates were assessed graphically and are presented as change in milliabsorbance units (ΔmAU)/min per g tissue. Under these conditions, 0.1 “Unit” of purified human leukocyte myeloperoxidase (Sigma M-6908) produced a ΔA470 of about 400 mAU/min.
The biochemical measurement involves measuring the level of MPO in a sample of homogenate of the whole rat colon. When the colon is damaged by the acetic acid, there is an extravasation of neutrophils. The extent of this infiltration can serve as a quantitative marker for tissue damage. Although other leukocytes, such as eosinophils and monocytes, also contribute to the inflammatory response, their contribution is small; the majority of the cells recruited during the acute inflammatory response are neutrophils. […]

iron-loaded hepatocytes = conditions: cited from earlier work
[5] = Prevention of iron-mediated oxidation of ascorbate (ascorbate-mediated reduction of Fe(III)); conditions: ascorbate 100 μM, FeCl3 30 μM, pH 7.4, ligand/Fe ratios 0-3, 40 min
Method: (§3) The iron chelators were tested for their ability to diminish the iron-mediated oxidation of ascorbate by the method of Dean and Nicholson (Free Radical Res. 20, 83-101 (1994)). Briefly, a solution of freshly prepared ascorbate (100 μM) in sodium phosphate buffer (5 mM, pH 7.4) was incubated in the presence of FeCl3 (30 μM) and chelator (ligand/Fe ratios varied from 0-3) for 40 min. The A265 was read at 10 and 40 min; the ΔA265 in the presence of ligand was compared to that in its absence.
The role of chelators in either inhibition or promotion of the Fenton reaction is related to their capacity to prevent Fe(III) from being reduced to Fe(II). Fe(II) is required for the reduction of H2O2 to HO. and HO^−. The assay involves spectrophotometrically monitoring the disappearance of ascorbate at pH 7.4 in the presence of FeCl3 and chelator at several ligand/Fe ratios. Under these conditions, ascorbate is oxidized to an L-ascorbyl radical anion. This anion then disproportionates to dehydroascorbic acid and ascorbate.
as §3, with “chelators nitrilotriacetic acid (NTA), 1,2-dimethyl-3-hydroxypyridin-4-one (L1), desferrioxamine B (DFO), (S)-4′-(HO)-DADMDFT, and (S,S)-1,11-Bis[5-(4-carboxyl-4,5-dihydro-1,3-thiazol-2-yl)-2,4-dihydroxyphenyl]-4,8-dioxaundecane (BDU)” for “chelators”, “Nicholson, Free” for “Nicholson (Free”, “20:” for “20,”, “(1994).” for “(1994)).”
The measurement examines the disappearance of ascorbate. It is known that DFO, a hydroxamate chelator that forms a 1:1 complex with Fe(III) at a formation constant of approximately 10^31 M^−1, prevents ascorbate-mediated reduction of Fe(III); it serves as a positive control in the present study. Both NTA and L1 promote ascorbate-mediated reduction of Fe(III) and serve as negative controls.

[6] = Table 1, A734, six-minute reaction, pH 7.4, 1.25 to 15 μM

## C[C@]1(C(=O)O)CSC(c2ccc(O)cc2O)=N1 [4′-(HO)-DADFT]
[1]
  Slope × 10^3 OD units/μM (ABTS radical cation quenching): −106 × 10^3 OD units/μM
[2]; [6]
  Slope × 10^3 OD units/μM (ABTS radical cation quenching): −105.6 × 10^3 OD units/μM
[3]; 650 μmol kg^−1 intracolonically 30 min before 4% acetic acid, mean ± standard deviation
  Damage (%): 62 ± 10%
[3]; intracolonic, image analysis and MPO assay
  protection against acetic acid-induced colonic damage (in words): did not protect
[4]
  MPO activity: 64192 ± 30802 mAU min^−1g of colonic tissue^−1

## Cc1c(O)c(=O)ccn1C [Compound L1, 1,2-Dimethyl-3-hydroxypyridin-4-one, reference compound]
[2]; [6]
  Slope × 10^3 OD units/μM (ABTS radical cation quenching): −52.9 × 10^3 OD units/μM
[2]; Table 3, A734, 6-min reaction, values marked b are the inventors' unpublished results
  Slope × 10^3 OD units/μM (ABTS radical cation quenching): −53^b × 10^3 OD units/μM
iron-loaded hepatocytes
  effect on iron-mediated oxidative DNA damage (in words): potentiated iron-mediated oxidative DNA damage
[5]
  effect on ascorbate-mediated reduction of Fe(III) (in words): promoted the reaction; also recorded: promoted ascorbate-mediated reduction of Fe(III)
[5]; listed as 1,2-dimethyl-3-hydroxypyridin-4-one
  effect on ascorbate-mediated reduction of Fe(III) (in words): increased the rate of iron(III) reduction

## C[C@]1(C(=O)O)CSC(c2ncccc2O)=N1 [DFT, desferrithiocin]
[2]; [6]
  Slope × 10^3 OD units/μM (ABTS radical cation quenching): −0.9 × 10^3 OD units/μM
iron-loaded hepatocytes
  effect on iron-mediated oxidative DNA damage (in words): prevented damage
